Patent US12037583B2, “Compositions and methods for immunooncology” (Novartis AG, priority 2015, dated 2024)

What was measured:
CIITA [1] = assay: NGS editing and frameshift edit of CIITA in CD3+ primary human T cells (RNP); type: cell-based; conditions: dgRNA targeting CIITA delivered as RNP to CD3+ T cells
Text: The frequency of insertions or deletions is indicated (% indels) and the percentage of these edits that result in frameshifting of the coding sequence is shown (% frameshift edits).
PBMC were isolated from human blood (Hemacare) by using centrifugation method using Ficoll. […] These cells were aliquoted and frozen. These frozen cell aliquots were then thawed and activated using CD3/CD28 beads (DynaBeads Invitrogen Cat #111.41D) at bead to cell ratio of 3:1. On day 2 or day 3 after bead activation, 200,000 cells were removed from culture for electroporation. […] Next 1 μL of 100 μM crRNA was added, mixed and incubated for 10 min at 37° C. If more than one RNP was added during the electroporation step, each RNP with a crRNA targeting a different gene was assembled separately using the above method, then combined together with the addition of Cas9 buffer in order to obtain different RNP final concentrations for different conditions. For “triple editing”, i.e. simultaneous addition of 3 RNPs targeting different genes, details of RNP quantities are provided in the figures. The assembled RNPs were then mixed with 200,000 cells in 10 ul of T Buffer (neon transfection system 10 ul Kit). Electroporation was performed by Neon electroporator using Neon® Transfection System 10 μL Kit (MPK1096) at 1600V, 10 ms, 3 pulses. […] To evaluate the editing frequency and sequence changes resulting from gene editing in the above prepared T cells, genomic DNA was isolated and subjected to sequencing. Briefly, frozen cell pellets were thawed and processed using DNeasy Blood & Tissue Kit (Qiagen, 69506) to isolate genomic DNA. Eluted DNA was used to run PCR using Titanium Taq PCR kit (Clontech Laboratories, 639211) and primers in Table 27.
PCR product was purified using QIAquick PCR Purification Kit (Qiagen, 28104). […] PCR amplicons were subjected to standard Nextera NGS library prep (Illumina) and sequenced with paired-end reads on an Illumina MiSeq sequencer.

CIITA [2] = assay: NGS editing and frameshift edit of CIITA by dgRNA in HEK293 cells expressing Cas9; type: cell-based, human; conditions: HEK293 cells stably expressing Cas9, dgRNA to CIITA; for Avg. % Edit: N = 3; for Avg. % FS: frameshift edit
Experimental: Editing of CIITA with dgRNAs targeted to the CIITA gene were assayed in HEK293 cells engineered to express Cas9, as described above in Example 1.

TRAC = assay: Editing of TRAC by dgRNAs in HEK cells stably expressing Cas9 (NGS); type: cell-based, human; conditions: dgRNA delivered to HEK cells stably expressing Cas9, target TRAC, mean of at least 3 experiments
Text: (§1) FIG. 12: Mean (n≥3) editing of CRISPR systems with dgRNAs as indicated to TRAC in HEK cells (stably expressing Cas9) or primary human CD3+ T cells (delivery of dgRNA:Cas9 RNP by electroporation).

TRAC locus = assay: Genomic editing of the TRAC locus in primary human CD3+ T cells by RNP electroporation (NGS: % indels, % frameshift edits, indel pattern); type: cell-based; conditions: dgRNA/Cas9 RNP by electroporation, target TRAC; for mean FS edit (%): frameshift edits in primary human CD3+ T cells; for mean total % edit: primary human CD3+ T cells, mean of at least 3 experiments;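 for all read-outs here: total edit is the insertion or deletion frequency at TRAC, and the frameshift value is the share of those indels that shift the coding frame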
Text: as §1
FIG. 33C: Genomic editing of the TRAC locus resulting from human primary T cell electroporation with RNP containing the indicated gRNA targeting the TRAC locus is shown. The frequency of insertions or deletions is indicated (% indels) and the percentage of these edits that result in frameshifting of the coding sequence is shown (% frameshift edits).
Data for each experiment are the average from triplicate PCR products.

| Substance | Editing % (CIITA [1]) | Frameshift Edit % (CIITA [1]) | Avg. % Edit (CIITA [2]) | Avg. % FS (CIITA [2]) | mean % edit (TRAC) | mean FS edit (%) (TRAC locus) | mean total % edit (TRAC locus) |
| --- | --- | --- | --- | --- | --- | --- | --- |
| CR002976 (guide AUAGAAGUGGUAGAGGCACA; chemistry not given here; listed as Homo sapiens) | 4.0% | 3.6% | 45.36% | 37.66% | – | – | – |
| CR002978 (guide UCUGGUCAUAGAAGUGGUAG; chemistry not given here; listed as Homo sapiens) | 4.7% | 2.7% | 38.34% | 34.11% | – | – | – |
| CR002980 (guide GGUCCAUCUGGUCAUAGAAG; chemistry not given here; listed as Homo sapiens) | 6.1% | 3.6% | 50.30% | 42.41% | – | – | – |
| CR002992 (guide UGGAAGGUGAUGAAGAGACC; chemistry not given here; listed as Homo sapiens) | 16.0% | 11.6% | 46.54% | 31.23% | – | – | – |
| CR002993: dgRNA targeting domain to CIITA (guide GGAAGGUGAUGAAGAGACCA; chemistry not given here; listed as Homo sapiens) | 33.8% | 27.2% | 60.16% | 48.86% | – | – | – |
| CR002994 (guide AGGUGAUGAAGAGACCAGGG; chemistry not given here; listed as Homo sapiens) | 22.0% | 18.1% | 42.35% | 31.32% | – | – | – |
| UAGGCAGACAGACUUGUCAC (chemistry not given here; listed as Homo sapiens) [CR000963] | – | – | – | – | 68.4% | 25.3% | 32.5% |
| UAUUCUUGUGCUCUCAGAGA (chemistry not given here; listed as Homo sapiens) [CR000952] | – | – | – | – | 57.9% | 5.6% | 5.8% |
| UCAAGGCCCCUCACCUCAGC (chemistry not given here; listed as Homo sapiens) [CR000995] | – | – | – | – | 23.2% | 2.5% | 1.9% |
| UCCUCCUCCUGAAAGUGGCC (chemistry not given here; listed as Homo sapiens) [CR000988] | – | – | – | – | 41.9% | 17.4% | 22.3% |
| UCUGUUGCUUAUAAGCUUCU (chemistry not given here; listed as Homo sapiens) [CR000946] | – | – | – | – | 65.9% | 9.2% | 9.8% |
| UGCUCACAGGUCCCUGCUGC (chemistry not given here; listed as Homo sapiens) [CR000925] | – | – | – | – | 56.9% | 12.3% | 19.1% |
| UGCUCAUGACGCUGCGGCUG (chemistry not given here; listed as Homo sapiens) [CR000994] | – | – | – | – | 46.9% | 10.8% | 21.5% |
| UGGUGUCAUAUGUGCAGCUC (chemistry not given here; listed as Homo sapiens) [CR000939] | – | – | – | – | 27.7% | 12.1% | 13.5% |
| UUCAAAACCUGUCAGUGAUU (chemistry not given here; listed as Homo sapiens) [CR000983] | – | – | – | – | 59.8% | 18.2% | 26.6% |
| UUGCCGGGGGGGCACAGAGG (chemistry not given here; listed as Homo sapiens) [CR001013] | – | – | – | – | 29.7% | 17.6% | 19.6% |
| UUUCAAAACCUGUCAGUGAU (chemistry not given here; listed as Homo sapiens) [CR000982] | – | – | – | – | 48.1% | 23.2% | 28.5% |
